# Experimental data published in patent US12285434B2, “Therapeutic, preventive, or improvement agent for inflammatory disease and allergic disease” (The University of Tokyo, priority 2018, dated 2025).
# How the values were obtained:
# ear vessels of the mice = assay: In vivo microscopy of ear vessels: FITC-dextran leakage and vascular diameter after histamine; parameters: species or system mouse; conditions: histamine 400 μg by instillation, no pretreatment
# Description: To visualize the ear vessels of the mice, 70 kDa fluorescein isothiocyanate-dextran (10 mg/kg, manufactured by Sigma-Aldrich) was injected intravenously. Then, immediately after the administration of fluorescein isothiocyanate-dextran, 5,6-DiHETE (0.1 μg) was administered by instillation (percutaneously administered) as a pretreatment, and this group of mice was designated as a “5,6-DiHETE-administered group.” As a control group, a group of mice not administered with 5,6-DiHETE was designated as a “[…]-administered group”. Then, 15 minutes after the administration by instillation, histamine (400 μg) was administered by instillation (percutaneously administered) into the ventral surface of the ears for both the groups. Next, the mice were placed on the stage of a microscope confocal microscope (ECLIPSE Ti with C1 confocal system, manufactured by Nikon Corporation), and their body temperatures were maintained at 37° C. Dextran leakage and vascular diameter in the ears were monitored every minute in a period from 0 to 30 minutes after the administration of histamine using EZ-C1 Free Viewer (manufactured by Nikon Corporation), and the dextran leakage, artery diameter and vein diameter were quantified according to the description of Omori, K. et al., British Journal of Pharmacology, 171:4879-4889 (2014). It is known that smooth muscle contraction reduces the downstream blood flow and limits the vascular leakage, whereas smooth muscle relaxation (increase of vascular diameter) increases the blood flow, thereby leading to vascular leakage.
# [1] = tested on: calcium ion concentration in HUVECs; assay: Histamine-induced increase of calcium ion concentration (fura-2); type: cell-based, human; conditions: histamine 10 μM, no pretreatment
# Description: These cells (passages 4 to 9) were used for experiments after 4-hour starvation in EBM-2 (manufactured by Lonza K.K.) containing 2% FBS.
# HUVECs were incubated with a calcium fluorescence indicator (3 μg fura-2/AM containing 0.11% Cremophor EL) for 30 minutes and washed with an HEPES buffer three times. […] Then, 5 minutes after the addition of each reagent, histamine was added so as to attain 10 μM. In addition, a group to which histamine was added so as to attain 10 μM without pretreatment was also prepared. A cover slip was placed in a specialized airtight chamber mounted onto the stage of a microscope maintained at 37° C. The HUVECs were excited at 340 nm and 380 nm and the emitted fluorescence signal was measured every 3 seconds at 510 nm for 60 seconds. The fluorescence ratio (R:F340/F380) was determined using a fluorescence imaging system (AQUACOSMOS, manufactured by Hamamatsu Photonics K.K.). After the experiment, 1 μM ionomycin was added and the fluorescence changes were measured in the presence of 0 or 1.5 mM calcium ions. The calcium ion concentration was indicated as A fluorescence ratio. AUC was calculated 1 minute after each stimulus to evaluate the A fluorescence ratio. It is known that the increase of calcium ion concentration in endothelial cells promotes NO production by eNOS phosphorylation and […] smooth muscle cells (Garcia-Cardena, G. et al., Nature, 392: 821-824(1998); and Luo, Z. et al., The Journal of clinical investigation, 106: 493-499(2000)).
# [2] = tested on: histamine-induced vascular permeability in mouse ears; assay: Modified Miles assay: histamine-induced vascular hyperpermeability (Evans blue extravasation); type: in vivo, mouse (C57BL/6); conditions: 400 μg histamine, no pretreatment
# Description: Fifteen (15) minutes after the intracutaneous injection, a vehicle (80% acetone) or histamine (400 μg, manufactured by Molecular Probes) was percutaneously administered to the ventral surface of the ears. To evaluate vascular permeability, Evans blue (50 mg/kg, manufactured by Sigma) was injected intravenously 5 minutes after the administration of histamine. The mice were then euthanized by cervical dislocation 30 minutes after the injection of Evans blue. The ears were dissected, dried at 55° C., and weighed. Extravasated Evans blue present in the ears was extracted in formamide (manufactured by Molecular Probes), and quantified spectrophotometrically (manufactured by PerkinElmer Japan Co., Ltd.) at a wavelength of 610 nm.
# NO production in HUVECs = assay: Histamine-induced NO production (nitrite and nitrate); type: cell-based, human; conditions: histamine 10 μM, no pretreatment
# Description: (§1) In Examples 4 to 6, human umbilical vein endothelial cells (hereinafter, sometimes referred to as “HUVECs”, manufactured by Lonza) were cultured in EGM-2 (manufactured by Lonza K.K.). These cells (passages 4 to 9) were used for experiments after 4-hour starvation in EBM-2 (manufactured by Lonza K.K.) containing 2% FBS.
# The HUVECs were washed three times with HEPES and incubated in HEPES supplemented with 1 mM L-arginine and 10 μM tetrahydrobiopterin. After equilibration for 30 minutes, the medium was exchanged, and the cells were incubated for additional 30 minutes. […] The conditioned media before and after the stimulation (100 μL each) were collected and centrifuged in each amount of 300 g for 3 minutes. The supernatants were collected, and used to measure nitrite and nitrate, as stable metabolites of NO, by an ENO-20 NOx analyzer (manufactured by Eicom Corporation). The degrees of increases of nitrite and nitrate levels after the stimulation were normalized with cellular protein contents.
# anaphylaxis model mice = assay: Histamine-induced anaphylaxis: blood pressure and body temperature; type: in vivo, mouse (C57BL/6); conditions: 30 minutes after histamine 50 mg/kg intravenously, no pretreatment
# Description: Histamine (50 mg/kg) lysed in a physiological saline solution was intravenously administered to C57BL/6 strain mice (male, 8 to 12 weeks old) to prepare anaphylaxis model mice (hereinafter, sometimes referred to as “anaphylaxis group”). […] L-NAME is an NO synthesis inhibitor. As indices of anaphylactic symptoms, a body temperature decrease and a blood pressure decrease were observed.
# HUVECs = assay: Endothelial barrier function: transendothelial electrical resistance (TER); type: cell-based, human; conditions: histamine 10 μM, no pretreatment
# Description: as §1
# The in vitro endothelial barrier function was evaluated by measuring the transendothelial electrical resistance (hereinafter, sometimes referred to as “TER”) of the HUVECs prepared in the above item (1) over time. Specifically, the transendothelial electrical resistance was measured using an xCELLigence Real-Time Cell Analyzer DP system (manufactured by Roche). The system monitors changes in TER across an interdigitated microelectrode at the bottom of tissue culture E-plates (manufactured by Roche). The HUVECs (8,000 cells) were plated on the E-plates and incubated until confluent. Then, the following operation (a) or (b) was performed.
# (a) Each reagent was added to plates on which the HUVECs were cultured, so as to give a vehicle, 1 U/mL thrombin, 1 μM forskolin, or 0.1 μM or 0.3 μM 5,6-DiHETE (FIGS. 4A and 4B).
# (b) A vehicle or […] was added to plates on which the HUVECs were cultured, so as to attain 10 μM. […] Thirty (30) minutes after the addition, 10 μM histamine was added to each plate 30 minutes after the addition (FIGS. 4C and 4D).
# In the above operations (a) and (b), the TER was measured every 60 seconds. For normalization, the cell index value at each time point is shown as a ratio relative to the initial value. The maximum normalized cell index after stimulation was quantified and represented as maximal response. Note that it is known that the disruption of the endothelial barrier function lowers the TER, but that the enhancement of the endothelial barrier function increases the TER.
structure (smiles),measurement,setting,value
"NCCc1c[nH]cn1 [histamine, reference compound]",artery diameter as compared with arteries nonstimulated with histamine,ear vessels of the mice,178±13%
same,"calcium ion concentration, AUC at 1 minute after stimulation",[1],12.2±2.1
same,blue dye extravasation (Evans blue) in ear,[2],0.14 ± 0.02 µg/mg
same,NO production,NO production in HUVECs,0.31±0.06 pmol/μg protein
same,body temperature decrease,anaphylaxis model mice,−2.2±0.3 °C
same,"TER, minimum (normalized cell index)",HUVECs,0.82±0.05 fold
